According to article PMC11278298, “Generation, Characterisation and Identification of Bioactive Peptides from Mesopelagic Fish Protein Hydrolysates Using In Silico and In Vitro Approaches” (Marine Drugs, 2024):
Values belong to the compound of their own block, whether it stands above or below them. Residues, ends and D or L forms follow the SMILES beside them.

Columns and labels:
[1] = target: T1, ovine COX-1 enzyme (Ovis aries, UniProt P05979); assay: COX colourimetric inhibition screening assay, COX-1; format: biochemical; settings: synthesised peptide
T1 construct: purchased Cayman Chemicals 701050
T1 sequence (P05979 25-600): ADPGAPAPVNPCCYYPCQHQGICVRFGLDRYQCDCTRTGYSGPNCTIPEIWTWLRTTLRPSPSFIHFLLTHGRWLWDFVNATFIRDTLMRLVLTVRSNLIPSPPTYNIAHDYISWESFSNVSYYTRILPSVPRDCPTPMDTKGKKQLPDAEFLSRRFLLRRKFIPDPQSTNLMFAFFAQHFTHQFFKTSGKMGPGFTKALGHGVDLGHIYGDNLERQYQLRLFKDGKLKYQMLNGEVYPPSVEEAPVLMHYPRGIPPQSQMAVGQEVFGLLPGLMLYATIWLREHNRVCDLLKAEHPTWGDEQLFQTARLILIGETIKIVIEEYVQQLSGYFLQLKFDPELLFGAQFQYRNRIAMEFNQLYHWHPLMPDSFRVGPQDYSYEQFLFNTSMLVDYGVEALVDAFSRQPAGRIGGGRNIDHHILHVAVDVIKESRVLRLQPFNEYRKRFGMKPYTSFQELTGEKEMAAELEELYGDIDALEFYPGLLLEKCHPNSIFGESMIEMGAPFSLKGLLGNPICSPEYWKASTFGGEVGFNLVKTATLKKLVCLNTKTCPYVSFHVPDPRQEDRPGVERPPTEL
Protocol: The anti-pain and anti-inflammatory bioactivities of generated mesopelagic hydrolysates and permeates were assessed using a cyclooxygenase inhibition assay, targeting human COX-2 and ovine COX-1 enzymes, as described previously. COX (Prostaglandin H synthase) inhibition plays a positive role in the prevention of a variety of health conditions, and COX inhibitors have documented analgesic, anti-inflammatory, and antipyretic properties. They can influence pain and inflammation related to diseases like osteoarthritis and rheumatoid arthritis, musculoskeletal injury, migraines, and cancer. COX inhibitors are indicated for mild pain and are usually prescribed for short durations of time to patients. […] COX inhibition was calculated using the following Equation:% COX inhibition = (Corrected 100% initial activity − Corrected Inhibitor activity)/(Corrected 100% initial activity) × 100(1) where Corrected 100% initial activity was the absorbance value recorded for wells containing 150 µL 1× assay Buffer, 10 µL of either COX-1 or COX-2 enzyme and 10 µL of solvent (DMSO) minus the absorbance value recorded for the background well containing 160 µL of 1× Assay Buffer and 10 µL of solvent.

[2] = target: T2, human COX-2 enzyme (Homo sapiens, UniProt P35354); assay: COX colourimetric inhibition screening assay, COX-2; format: biochemical; settings: for IC50 / inhibition at 1000 µg/mL: synthesised peptide; for inhibition at 1000 µg/mL: 1 mg/mL
T2 construct: purchased Cayman Chemicals 701050
T2 sequence (P35354 18-604): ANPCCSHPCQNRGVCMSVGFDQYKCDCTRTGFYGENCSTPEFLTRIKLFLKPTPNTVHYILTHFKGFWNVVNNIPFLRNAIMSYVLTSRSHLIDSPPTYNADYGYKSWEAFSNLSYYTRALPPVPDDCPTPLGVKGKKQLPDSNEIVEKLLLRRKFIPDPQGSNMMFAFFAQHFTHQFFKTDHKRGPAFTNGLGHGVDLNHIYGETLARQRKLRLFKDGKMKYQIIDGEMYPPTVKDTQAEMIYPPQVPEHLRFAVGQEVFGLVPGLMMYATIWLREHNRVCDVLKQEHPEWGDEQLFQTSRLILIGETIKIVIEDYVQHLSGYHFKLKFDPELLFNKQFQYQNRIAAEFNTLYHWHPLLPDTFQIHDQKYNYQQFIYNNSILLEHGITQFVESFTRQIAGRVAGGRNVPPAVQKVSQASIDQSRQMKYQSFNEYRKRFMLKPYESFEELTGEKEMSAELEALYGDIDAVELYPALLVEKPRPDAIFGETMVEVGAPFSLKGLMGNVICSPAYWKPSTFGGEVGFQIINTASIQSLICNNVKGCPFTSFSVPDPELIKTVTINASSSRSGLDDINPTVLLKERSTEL
Protocol: The anti-pain and anti-inflammatory bioactivities of generated mesopelagic hydrolysates and permeates were assessed using a cyclooxygenase inhibition assay, targeting human COX-2 and ovine COX-1 enzymes, as described previously. […] They can influence pain and inflammation related to diseases like osteoarthritis and rheumatoid arthritis, musculoskeletal injury, migraines, and cancer. COX inhibitors are indicated for mild pain and are usually prescribed for short durations of time to patients.

[3] = tested on: COX-2; set-up: method as in PMID 20188172; settings: known COX-2 selective inhibitors; read-out: COX2- IC50; cited from earlier work
[4] = tested on: LOX-1 expression; set-up: method as in PMID 30955604; settings: peptides from amaranth; cited from earlier work
[5] = tested on: nitric oxide (NO) production; set-up: method as in doi:10.48022/mbl.2109.09005; settings: peptide from mollusc abalone; cited from earlier work
[6] = target: T3, MAGL enzyme (Homo sapiens, UniProt Q99685); assay: Monoacylglycerol lipase inhibition screening assay; format: biochemical
T3 construct: purchased Cayman
T3 sequence (Q99685 1-303): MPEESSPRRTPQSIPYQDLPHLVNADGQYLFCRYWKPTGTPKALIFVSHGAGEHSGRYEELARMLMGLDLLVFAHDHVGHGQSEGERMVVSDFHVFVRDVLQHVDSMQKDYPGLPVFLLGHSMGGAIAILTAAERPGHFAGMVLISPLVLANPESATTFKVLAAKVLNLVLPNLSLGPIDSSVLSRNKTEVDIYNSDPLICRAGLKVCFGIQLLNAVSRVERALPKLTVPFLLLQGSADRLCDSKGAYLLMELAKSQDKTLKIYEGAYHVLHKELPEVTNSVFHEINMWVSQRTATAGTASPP
From the text: Monoacylglycerol lipase (MAGL) is a serine hydrolase that catalyses the hydrolysis of monoglycerides into glycerol and fatty acids and links the endocannabinoid and eicosanoid systems through degradation of 2-arachidaoylglycerol to arachidonic acid, a precursor of prostaglandins and other inflammatory mediators. MAGL inhibitors can have anti-nociceptive, anxiolytic, anti-inflammatory and even anti-cancer benefits. The Cayman’s Monoacylglycerol lipase inhibition screening assay kit was used to measure the inhibition of MAGL by generated hydrolysates and the positive control JZL 195 inhibitor. The assay was performed in compliance with the manufacturer’s instructions. MAGL hydrolyses 4-Nitrophenylacetate, resulting in a yellow product, 4-nitrophenol, that has an absorbance between 405–412 nm. The […] of the yellow colour is indicative of MAGL inhibition. MAGL inhibition was calculated using the following Equation:% MAGL inhibition = (corrected 100% initial activity − corrected inhibitor activity)/(corrected 100% initial activity) × 100(2) where corrected 100% initial activity was the absorbance value recorded for wells containing 150 µL 1× assay Buffer, 10 µL of MAGL enzyme and 10 µL of solvent minus the absorbance value recorded for the background well containing 160 µL of 1× Assay Buffer and 10 µL of solvent (1.4% DMSO in water).

[7] = tested on: COX-1; set-up: method as in PMID 20188172; settings: known COX-1 selective inhibitors from Chinese herbs; cited from earlier work

IC50 [1]: 103 µM | inhibition at 1000 µg/mL ([1]; 1 mg/mL): 53.3% | selectivity index ([2]; COX-1 versus COX-2 IC50 of synthesised peptide): 0.52 | IC50 [2]: 366 µM | inhibition at 1000 µg/mL [2]: 47.5%
Compound: CC[C@H](C)[C@H](N)C(=O)N[C@@H](C)C(=O)NCC(=O)N[C@@H](Cc1ccccc1)C(=O)N[C@@H](CCC(=O)O)C(=O)N[C@H](C(=O)N[C@@H](Cc1ccccc1)C(=O)N[C@@H](CC(=O)O)C(=O)N[C@@H](Cc1ccccc1)C(=O)N[C@@H](CC(N)=O)C(=O)N[C@@H](CO)C(=O)N[C@@H](CC(C)C)C(=O)N[C@@H](CCC(=O)O)C(=O)N[C@@H](CCC(N)=O)C(=O)N[C@@H](CC(C)C)C(=O)N[C@@H](CS)C(=O)O)[C@@H](C)CC (H-IAGFEIFDFNSLEQLC-OH)

Compound: C[C@H]1COC2=C1C(=O)C(=O)c1c2ccc2c1CCCC2(C)C [cryptotanshinone]
IC50 [3]: 22 µM

% COX-1 inhibition ([1]; concentration not printed with the value): 82.90% (+/−0.54) | IC50 [2]: 221 µM | inhibition at 1000 µg/mL [2]: 53.8%
Compound: CC(C)C[C@H](NC(=O)[C@H](C)NC(=O)[C@H](Cc1c[nH]c2ccccc12)NC(=O)[C@@H]1CCCN1C(=O)[C@H](CCCNC(=N)N)NC(=O)[C@H](Cc1c[nH]cn1)NC(=O)[C@H](CC(C)C)NC(=O)[C@@H]1CCCN1C(=O)[C@H](CS)NC(=O)[C@@H](N)CCC(N)=O)C(=O)O [QCPLHRPWAL] (H-QCPLHRPWAL-OH)

inhibition at 500 µg/mL ([1]; 0.5 mg/mL): 53.7%
Compound: CSCC[C@H](NC(=O)[C@H](Cc1ccccc1)NC(=O)[C@H](CCC(N)=O)NC(=O)[C@H](Cc1ccc(O)cc1)NC(=O)[C@H](C)NC(=O)[C@H](CC(N)=O)NC(=O)[C@H](CC(=O)O)NC(=O)[C@@H](N)CO)C(=O)N[C@@H](CC(C)C)C(=O)N[C@H](C(=O)O)[C@@H](C)O (H-SDNAYQFMLT-OH)

Compound: HGSEPFGPR [literature anti-inflammatory peptide from amaranth]
effect on LOX-1 expression [4]: reduce LOX-1 expression

Compound: PFNEGTFAAS [literature peptide derived from mollusc abalone]
NO IC50 [5]: 54.07 µg/mL

Compound: O=C(Oc1ccc([N+](=O)[O-])cc1)N1CCN(Cc2cccc(Oc3ccccc3)c2)CC1 [JZL 195, reference compound]
% MAGL inhibition ([6]; positive control at 4.4 µM): 98.16%

Compound: CCC/C=C1\OC(=O)C2=C1CC[C@H]1[C@H]3C=C4C(=O)O/C(=C\CCC)[C@@]4(CC3)[C@@H]21 [Senkyunolide O]
IC50 [3]: 5 µM

% COX-1 inhibition ([1]; 0.5 mg/mL): 34.49%
Compound: FDAFLPM [peptide from Irish M. muelleri Alcalase hydrolysate (Code 23), chemically synthesised]

Compound: RPRYPWRYT [literature anti-inflammatory peptide from amaranth]
effect on LOX-1 expression [4]: reduce LOX-1 expression

Compound: CC(=O)O[C@@H]1CC[C@@]2(C)[C@@H](CC[C@]3(C)[C@@H]2C(=O)C=C2[C@@H]4[C@@H](C)[C@H](C)CC[C@]4(C)CC[C@]23C)[C@@]1(C)C(=O)O [Acetyl-11-keto-β-boswellic acid]
IC50 [7]: ~10 µM

Compound: CC(=O)O[C@@H]1CC[C@@]2(C)[C@@H](CC[C@]3(C)[C@@H]2CC=C2[C@@H]4[C@@H](C)[C@H](C)CC[C@]4(C)CC[C@]23C)[C@@]1(C)C(=O)O [acetyl-β-boswellic acid]
IC50 [7]: ~10 µM

Compound: C[C@H]1[C@H](C)CC[C@]2(C)CC[C@]3(C)C(=CC[C@@H]4[C@@]5(C)CC[C@@H](O)[C@](C)(C(=O)O)[C@@H]5CC[C@]43C)[C@H]12 [β-boswellic acid]
IC50 [7]: ~10 µM

IC50 ([6]; synthesised peptide): 6.35 µM | inhibition at 500 µg/mL ([6]; synthesised peptide, 0.5 mg/mL): 53%
Compound: CC[C@H](C)[C@H](NC(=O)[C@H](CC(C)C)NC(=O)[C@H](C)NC(=O)[C@H](CCC(=O)O)NC(=O)[C@@H]1CCCN1C(=O)[C@H](CC(C)C)NC(=O)CNC(=O)[C@H](CC(C)C)NC(=O)[C@H](C)NC(=O)[C@H](C)NC(=O)[C@@H](NC(=O)[C@H](CC(C)C)NC(=O)[C@H](Cc1ccccc1)NC(=O)[C@@H](NC(=O)[C@H](CS)NC(=O)[C@@H](NC(=O)[C@@H](NC(=O)[C@H](CCC(=O)O)NC(=O)CNC(=O)[C@@H](NC(=O)[C@@H](N)CC(N)=O)C(C)C)C(C)C)C(C)C)[C@@H](C)CC)[C@@H](C)O)C(=O)O (H-NVGEVVCIFLTAALGLPEALI-OH)

Compound: CC(=O)O[C@@H]1CC[C@@]2(C)[C@@H](CC[C@]3(C)[C@@H]2CC=C2[C@@H]4CC(C)(C)CC[C@]4(C)CC[C@]23C)[C@@]1(C)C(=O)O [acetyl-α-boswellic acid]
IC50 [7]: ~10 µM
